Experimental data: patent US12391671B2, “Allosteric EGFR inhibitors and methods of use thereof” (Dana-Farber Cancer Institute, Inc., priority 2019, dated 2025)
Counter-ions that a name gives are not always drawn. Like-named read-outs stand apart in the source and are kept apart here.

Assays:
EGFR L858R/T790M = EGFR L858R/T790M (Homo sapiens (Human), UniProt P00533, L858R/T790M); assay: HTRF-based EGFR biochemical assay (L858R/T790M); conditions: 100 μM ATP, enzyme 0.02 nM
In short: (§1)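 Mutant EGFR (L858R 0.1 nM, L858R/T790M 0.02 nM) preincubated 30 min with compounds at room temperature in HEPES pH 7.0 buffer with Mg2+/Mn2+, then reacted 20 min with 1 μM biotinylated tyrosine kinase peptide and 100 μM ATP. Phosphorylation read by HTRF (Eu-cryptate anti-phosphotyrosine/streptavidin-XL665, 665/620 nm) after EDTA quench.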

[1] = test system: EGFR mutant L858R Ba/F3 cells; assay: Ba/F3 cell proliferation model (Cell Titer Glo), EGFR L858R; assay type: cell-based, murine; conditions: Mus musculus, BaF3; single agent, 72 hours; read-out: Cell IC50 BaF3 EGFR L858R
Description: Example 26: Ba/F3 Cell Proliferation Models
The EGFR mutant L858R and L858R/T790M Ba/F3 cells have been previously described (Zhou, W., et al. Nature 462, 2009, 1070-1074). All cell lines were maintained in RPM 1640 (Cellgro; Mediatech Inc., Herndon. CA) supplemented with 10% FBS, 100 units/mL penicillin, 100 units/mL streptomycin. The EGFR I941R mutation was introduced via site directed mutagenesis using the Quick Change Site-Directed Mutagenesis kit (Stratagene; La Jolla, CA) according to the manufacturer's instructions. All constructs were confirmed by DNA sequencing. The constructs were shuttled into the retroviral vector JP1540 using the Cre-recombination system (Agilent Technologies, Santa Clara, CA). Ba/F3 cells were then infected with retrovirus per standard protocols, as described previously (Zhou, et al, Nature 2009). Stable clones were obtained by selection in puromycin (2 μg/ml).
Growth and inhibition of growth was assessed by the Cell Titer Glo® assay (Promega, Madison, WI) and was performed according to the manufacturer's instructions. The Cell Titer Glo® assay is a luminescence-based method used to determine the number of viable cells based on quantitation of the ATP present, which is directly proportional to the amount of metabolically active cells present. Ba/F3 cells of different EGFR genotypes were exposed to compounds as a single agent or in combination with 1 μg/mL cetuximab for 72 hours and the number of cells used per experiment was determined empirically as has been previously established (Zhou, et al., Nature 2009). All experimental points were set up in triplicates in 384-well plates and all experiments were repeated at least three times. […] The curves were fitted using a non-linear regression model with a sigmoidal dose response.

[2] = test system: EGFR mutant L858R/T790M Ba/F3 cells; assay: Ba/F3 cell proliferation model (Cell Titer Glo), EGFR L858R/T790M; assay type: cell-based, murine; conditions: 72 hours
In short: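 Retrovirally transduced Ba/F3 cells exposed 72 h to compound alone or with 1 μg/mL cetuximab, triplicate points, repeated at least three times. Viability by Cell Titer Glo luminescence (ATP); curves fitted by non-linear sigmoidal dose-response regression.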

EGFR L858R = EGFR L858R (Homo sapiens (Human), UniProt P00533, L858R); assay: HTRF-based EGFR biochemical assay (L858R); conditions: 100 μM ATP, enzyme 0.1 nM
Sequence of EGFR L858R (P00533 25-1210 L858R): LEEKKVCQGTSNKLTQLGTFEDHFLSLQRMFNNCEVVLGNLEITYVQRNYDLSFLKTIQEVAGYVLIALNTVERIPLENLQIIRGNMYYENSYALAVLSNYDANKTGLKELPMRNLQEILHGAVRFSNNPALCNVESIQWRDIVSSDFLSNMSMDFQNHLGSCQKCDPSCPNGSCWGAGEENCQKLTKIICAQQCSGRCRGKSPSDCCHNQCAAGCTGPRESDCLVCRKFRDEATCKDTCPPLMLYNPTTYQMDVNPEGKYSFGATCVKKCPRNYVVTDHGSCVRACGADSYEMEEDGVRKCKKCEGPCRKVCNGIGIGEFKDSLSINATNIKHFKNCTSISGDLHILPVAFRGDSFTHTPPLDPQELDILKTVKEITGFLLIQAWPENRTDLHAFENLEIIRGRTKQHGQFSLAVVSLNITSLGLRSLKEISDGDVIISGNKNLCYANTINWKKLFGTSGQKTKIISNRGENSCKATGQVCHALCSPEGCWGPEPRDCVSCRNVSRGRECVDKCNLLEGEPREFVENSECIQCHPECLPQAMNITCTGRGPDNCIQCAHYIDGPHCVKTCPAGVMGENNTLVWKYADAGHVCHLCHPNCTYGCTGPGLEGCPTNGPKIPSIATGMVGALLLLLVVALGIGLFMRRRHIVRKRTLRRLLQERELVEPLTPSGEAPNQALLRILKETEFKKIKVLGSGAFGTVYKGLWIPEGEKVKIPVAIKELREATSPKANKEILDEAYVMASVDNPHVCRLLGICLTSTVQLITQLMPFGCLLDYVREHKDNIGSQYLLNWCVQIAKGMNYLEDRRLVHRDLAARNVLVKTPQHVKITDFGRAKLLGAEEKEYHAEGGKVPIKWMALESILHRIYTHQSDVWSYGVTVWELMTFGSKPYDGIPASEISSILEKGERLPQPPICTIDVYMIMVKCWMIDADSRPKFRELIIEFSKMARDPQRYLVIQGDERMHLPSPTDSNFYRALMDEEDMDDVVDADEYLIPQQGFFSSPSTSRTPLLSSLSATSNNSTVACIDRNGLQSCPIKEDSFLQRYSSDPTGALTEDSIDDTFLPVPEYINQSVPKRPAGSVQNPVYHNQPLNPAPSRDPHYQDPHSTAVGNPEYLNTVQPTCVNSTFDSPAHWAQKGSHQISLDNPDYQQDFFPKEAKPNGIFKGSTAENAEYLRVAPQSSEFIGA
In short: as §1

[3] = test system: NSCLC resistant to gefitinib or erlotinib; conditions: patients with NSCLC that have developed resistance to gefitinib or erlotinib; cited from earlier work
[4] = Mus musculus, BaF3, single agent, read-out: Cell IC50 BaF3 EGFR L858R/T790M
[5] = in combination with 1 μg/mL cetuximab, read-out: Cell IC50 BaF3 EGFR L858R/T790M (+cetux.)

Sequence of EGFR L858R/T790M (P00533 25-1210 T790M/L858R): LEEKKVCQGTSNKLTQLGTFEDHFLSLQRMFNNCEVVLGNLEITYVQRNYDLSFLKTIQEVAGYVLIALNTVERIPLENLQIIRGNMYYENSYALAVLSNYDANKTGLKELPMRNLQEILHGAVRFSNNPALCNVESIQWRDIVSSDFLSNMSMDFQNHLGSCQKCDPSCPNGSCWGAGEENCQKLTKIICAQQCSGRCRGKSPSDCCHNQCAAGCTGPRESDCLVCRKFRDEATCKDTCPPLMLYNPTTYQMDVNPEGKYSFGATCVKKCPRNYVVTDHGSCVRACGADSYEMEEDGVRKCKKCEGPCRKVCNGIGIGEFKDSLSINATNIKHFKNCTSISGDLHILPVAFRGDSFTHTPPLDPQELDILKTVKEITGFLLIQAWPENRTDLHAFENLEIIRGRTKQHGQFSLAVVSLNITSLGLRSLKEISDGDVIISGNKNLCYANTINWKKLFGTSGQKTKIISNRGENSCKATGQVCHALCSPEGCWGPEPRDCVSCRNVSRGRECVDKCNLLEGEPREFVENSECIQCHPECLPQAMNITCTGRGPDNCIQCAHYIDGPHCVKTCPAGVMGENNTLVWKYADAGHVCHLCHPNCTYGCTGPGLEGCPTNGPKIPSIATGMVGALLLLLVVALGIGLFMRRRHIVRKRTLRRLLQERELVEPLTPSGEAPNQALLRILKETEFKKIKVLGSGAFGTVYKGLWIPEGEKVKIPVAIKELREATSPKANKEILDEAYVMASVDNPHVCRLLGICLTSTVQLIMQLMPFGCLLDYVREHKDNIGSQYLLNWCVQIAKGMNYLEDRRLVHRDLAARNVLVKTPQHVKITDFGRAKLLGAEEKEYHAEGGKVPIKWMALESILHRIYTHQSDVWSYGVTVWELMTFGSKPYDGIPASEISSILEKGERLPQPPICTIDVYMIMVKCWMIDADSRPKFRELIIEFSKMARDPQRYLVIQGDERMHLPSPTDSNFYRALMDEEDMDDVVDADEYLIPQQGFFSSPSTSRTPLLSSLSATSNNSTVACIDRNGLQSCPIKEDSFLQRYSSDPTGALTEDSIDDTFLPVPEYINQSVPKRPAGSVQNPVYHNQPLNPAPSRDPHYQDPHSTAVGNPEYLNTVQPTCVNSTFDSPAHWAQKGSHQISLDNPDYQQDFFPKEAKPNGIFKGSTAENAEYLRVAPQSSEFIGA

Row | SMILES | IC50 (EGFR L858R/T790M) [nM] | IC50 [1] [nM] | IC50 [2, 4] [nM] | IC50 [2, 5] [nM] | IC50 (EGFR L858R) [nM] | RR (response rate) [3]
1 | CCc1c(-c2ccc(C3CCN(C)CC3)cc2)ccc2ncn(C(c3nc4ccccc4[nH]3)c3cc(F)ccc3O)c(=O)c12 (stereo not drawn) [Compound 074, 3-[1H-benzimidazol-2-yl-(5-fluoro-2-hydroxy-phenyl)methyl]-5-ethyl-6-[4-(1-methyl-4-piperidyl)phenyl]-quinazolin-4-one; dihydrochloride] | 1 | 110 | 120 | 20 | 2 | –
2 | CN1CCC(c2ccc(-c3ccc4ncn(C(c5nc6ccccc6[nH]5)c5cc(F)ccc5O)c(=O)c4c3Cl)cc2)CC1 (stereo not drawn) [Compound 075, 3-[1H-benzimidazol-2-yl-(5-fluoro-2-hydroxy-phenyl)methyl]-5-chloro-6-[4-(1-methyl-4-piperidy)phenyl]-quinazolin-4-one; dihydrochloride] | 0.7 | 100 | 90 | 20 | 1 | –
3 | CN1CCC(c2ccc(-c3ccc4ncn(C(c5nc6ccccc6[nH]5)c5cc(F)ccc5O)c(=O)c4c3C(F)(F)F)cc2)CC1 (stereo not drawn) [Compound 076, 3-[1H-benzimidazol-2-yl-(5-fluoro-2-hydroxy-phenyl)methyl]-6-[4-(1-methyl-4-piperidyl)phenyl]-5-(trifluoromethyl)quinazolin-4-one; dihydrochloride] | 2 | 90 | 140 | 30 | 2 | –
4 | COc1c(-c2ccc(C3CCN(C)CC3)cc2)ccc2ncn(C(c3nc4ccccc4[nH]3)c3cc(F)ccc3O)c(=O)c12 (stereo not drawn) [Compound 077, 3-[1H-benzimidazol-2-yl-(5-fluoro-2-hydroxy-phenyl)methyl]-5-methoxy-6-[4-(1-methyl-4-piperidyl)phenyl]quinazolin-4-one;dihydrochloride] | 2 | 910 | 450 | 50 | 2 | –
5 | CN1CCC(c2ccc(-c3ccc4c(c3)C(=S)N(C(c3nc5ccccc5[nH]3)c3cc(F)ccc3O)C4)cc2)CC1 (stereo not drawn) [Compound 078, 2-[1H-benzimidazol-2-yl-(5-fluoro-2-hydroxy-phenyl)methyl]-6-[4-(1-methyl-4-piperidyl)phenyl]isoindoline-1-thione;dihydrochloride] | 1 | 690 | 310 | 20 | 3 | –
6 | CN1CCC2(c3ccc(-c4ccc5c(c4)C(=O)N(C(c4nc6ccccc6[nH]4)c4cc(F)ccc4O)C5)cc3)CC2C1 (stereo not drawn) [Compound 079, 2-[1H-benzimidazol-2-yl-(5-fluoro-2-hydroxy-phenyl)methyl]-6-[4-(3-methyl-3-azabicyclo[4.1.0]heptan-6-yl)phenyl]isoindolin-1-one; dihydrochloride] | 0.8 | 830 | 190 | 7 | 3 | –
7 | CN1CCC(c2ccc(-c3ccc4c(c3F)C(=O)N(C(c3nc5ccccc5[nH]3)c3cc(F)ccc3O)C4)cc2F)CC1 (stereo not drawn) [Compound 080, 2-[1H-benzimidazol-2-yl-(5-fluoro-2-hydroxy-phenyl)methyl]-7-fluoro-6-[3-fluoro-4-(1-methyl-4-piperidyl)phenyl]isoindolin-1-one; dihydrochloride] | 0.6 | 500 | 210 | 10 | 3 | –
8 | Cc1c(-c2ccc(C3CCN(C)CC3)cc2)ccc2c1C(=O)N(C(c1nc3ccccc3[nH]1)c1cc(F)ccc1O)C2 (stereo not drawn) [Compound 082, 2-[1H-benzimidazol-2-yl-(5-fluoro-2-hydroxy-phenyl)methyl]-7-methyl-6-[4-(1-methyl-4-piperidyl)phenyl]isoindolin-1-one; dihydrochloride] | 0.6 | 670 | 220 | 20 | 3 | –
9 | Cc1c[nH]c(C(c2cc(F)ccc2O)N2Cc3ccc(-c4ccc(C5CCN(C)CC5)cc4)cc3C2=O)n1 (stereo not drawn) [Compound 085, 2-[(5-Fluoro-2-hydroxy-phenyl)-(4-methyl-1H-imidazol-2-yl)methyl]-6-[4-(1-methyl-4-piperidyl)phenyl]isoindolin-1-one] | 28 | 780 | 1290 | 50 | 13 | –
10 | Cc1c[nH]c(C(c2cccc(F)c2)N2Cc3ccc(-c4ccc(C5CCN(C)CC5)cc4)cc3C2=O)n1 (stereo not drawn) [Compound 086, 2-[(3-fluorophenyl)-(4-methyl-1H-imidazol-2-yl)methyl]-6-[4-(1-methyl-4-piperidyl)phenyl]isoindolin-1-one] | 25 | 3640 | 3220 | – | > 100 | –
11 | Cc1nc(C(c2cc(F)ccc2O)N2Cc3ccc(-c4ccc(C5CCN(C)CC5)cc4)cc3C2=O)[nH]c1C (stereo not drawn) [Compound 087, 2-[(4,5-dimethyl-1H-imidazol-2-yl)-(5-fluoro-2-hydroxy-phenyl)methyl]-6-[4-(1-methyl-4-piperidyl)phenyl]isoindolin-1-one] | 25 | 1370 | 1320 | – | > 100 | –
12 | CN1CCC(Oc2ccc(-c3ccc4c(c3)C(=O)N(C(c3nc5ccccc5[nH]3)c3cc(F)ccc3O)C4)cc2)CC1 (stereo not drawn) [Compound 090, 2-[1H-benzimidazol-2-yl-(5-fluoro-2-hydroxy-phenyl)methyl]-6-[4-[(1-methyl-4-piperidyl)oxy]phenyl]isoindolin-1-one] | 8 | 1430 | 860 | 20 | 11 | –
13 | O=C1c2cc(-c3ccc(OC4CNC4)cc3)ccc2CN1C(c1nc2ccccc2[nH]1)c1cc(F)ccc1O (stereo not drawn) [Compound 091, 6-[4-(azetidin-3-yloxy)phenyl]-2-[1H-benzimidazol-2-yl-(5-fluoro-2-hydroxy-phenyl)methyl]isoindolin-1-one; dihydrochloride] | 6 | 1780 | 1050 | 120 | 12 | –
14 | CN1CCC(c2ccc(-c3ccc4cn(C(c5nc6ccccc6[nH]5)c5cc(F)ccc5O)nc4c3Cl)cc2)CC1 (stereo not drawn) [Compound 092, 2-[1H-benzimidazol-2-yl-[7-chloro-6-[4-(1-methyl-4-piperidyl)phenyl]-indazol-2-yl]methyl]-4-fluoro-phenol; dihydrochloride] | 1 | 820 | 100 | 10 | 4 | –
15 | CN1CCC(c2ccc(-c3ccc4cn(C(c5nc6ccccc6[nH]5)c5cc(F)ccc5O)nc4c3)cc2)CC1 (stereo not drawn) [Compound 100, 2-((1H-Benzo[d]imidazol-2-yl)(6-(4-(1-methylpiperidin-4-yl)phenyl)-2H-indazol-2-yl)methyl)-4-fluorophenol; trifluoroacetate] | 4 | 2000 | 530 | – | 14 | –
16 | CN1CCC(c2ccc(-c3cc4nn(C(c5nc6ccccc6[nH]5)c5cc(F)ccc5O)cc4cc3F)cc2)CC1 (stereo not drawn) [Compound 118, 2-((1H-Benzo[d]imidazol-2-yl)(5-fluoro-6-(4-(1-methylpiperidin-4-yl)phenyl)-2H-indazol-2-yl)methyl)-4-fluorophenol] | 6 | 4080 | 1310 | – | 16 | –
17 | CN1CCC(c2ccc(-c3cc(F)c4cn(C(c5nc6ccccc6[nH]5)c5cc(F)ccc5O)nc4c3)cc2)CC1 (stereo not drawn) [Compound 119, 2-((1H-Benzo[d]imidazol-2-yl)(4-fluoro-6-(4-(1-methylpiperidin-4-yl)phenyl)-2H-indazol-2-yl)methyl)-4-fluorophenol; trifluoroacetate] | 3 | 780 | 420 | – | 11 | –
18 | CN(C)C/C=C/C(=O)Nc1cc2c(Nc3ccc(F)c(Cl)c3)ncnc2cc1O[C@H]1CCOC1 [afatinib] | – | – | – | – | – | less than 10%
